Tests used:
BDNF = BDNF content of ischiadic nerve of STZ diabetic neuropathy model rats (sandwich ELISA); format: in vivo; details: male SD rats, STZ 70 mg/kg diabetic neuropathy model, 3 mg/kg orally in 0.5% methyl cellulose, ischiadic nerve supernatant, average value ± SD (n = 7–8)
Protocol: (§1) To 6-week-old male SD rats (CLEA Japan, Inc.) was injected 70 mg/kg body weight of streptozotocin (STZ) from the tail vein to form a diabetic neuropathy model.
(§2) After raising for one month, 3 mg/kg of compound (compound of Example 5 or Example 226) suspended in 0.5% methyl cellulose was orally administered to the rats. For the control group, a 0.5% aqueous methyl cellulose suspension free of the aforementioned compound was administered.
After the evaluation of the nerve conduction velocity, the ischiadic nerve was taken from the rat, a lysis buffer (0.1M Tris-HCl buffer containing 1M sodium chloride, 2% BSA, 2 mM EDTA, 80 trypsin unit/L of aprotinin, pH 7.6) in a 20-fold amount of the wet weight of ischiadic nerve was added and the mixture was subjected to ultrasonication and centrifugal separation (15,000 rpm, 60 min.), and the BDNF content of the supernatant was measured.
The BDNF content was measured by sandwich ELISA Method using anti-BDNF polyclonal antibody (Promega) and biotinated anti-BDNF antibody (G1641, Promega). The results are shown in [Table 20].

[1] = system: diabetic neuropathy model (streptozotocin-injected rats); experiment: Motor nerve conduction velocity in STZ diabetic neuropathy model rats; format: in vivo; details: male SD rats, STZ 70 mg/kg diabetic neuropathy model; 3 mg/kg orally in 0.5% methyl cellulose; average value ± SD (n = 7–8)
Protocol: as §1, §2
After the completion of the administration, the rats were anesthetized with Nembutal, the body temperature was maintained at a constant level using a hot plate at 37° C. and a desk lamp, needle electrodes were placed on the above-knee region and ankle, stimulated using Neuropack 2 (NIHON KOHDEN CORPORATION) principally at 1.6 mA and the evoked potential was detected from the plantar part. The Motor Nerve Conduction Velocity (MNCV) was calculated from the distance between different electrodes and latency difference of waveforms.

Compound	BDNF (content of ischiadic nerve) (BDNF) [ng/g]	melting point [°C]	MNCV (Motor Nerve Conduction Velocity) [1] [m/s]
CCOP(=O)(Cc1ccc(NC(=O)CCc2oc(-n3cnc4ccccc43)nc2-c2ccc(Cl)cc2)cc1)OCC [Example 5, 3-[2-(1H-benzimidazol-1-yl)-4-(4-chlorophenyl)-5-oxazolyl]-N-[4-(diethylphosphonomethyl)phenyl]propionamide]	2.6 ± 0.7	159 to 160	52.7 ± 5.0
CCOP(=O)(Cc1ccc(NC(=O)CCCc2oc(-n3cnc4ccccc43)nc2-c2ccc(Cl)cc2)cc1)OCC [Example 226, 4-[2-(1H-benzimidazol-1-yl)-4-(4-chlorophenyl)-5-oxazolyl]-N-[(4-diethylphosphonomethyl)phenyl]butanamide]	3.6 ± 0.4	–	52.3 ± 2.4
